Measurements from patent US20140235545A1, “The use of HCV immunogenic peptide or a derivative thereof in the prevention or treatment of arthritis” (priority 2011, published 2014).
No end group written: not given here.

Tested on: adjuvant arthritis (Freund's complete adjuvant)
Experiment: Protective effect of peptide A on adjuvant arthritis in rats
Type: in vivo, SD rats
Conditions: for ankle joint swelling value: X±SD; for ankle joint swelling value / Lesion scoring ( X ± SD), joint lesion severity: n=10; for inhibition rate of ankle joint swelling: vs model group; for Lesion scoring ( X ± SD), joint lesion severity: 32nd day, left rear ankle joint histopathology, lower score = milder
Procedure: SPF-level SD rats, each weighting 180 g-220 g, with male and female each in half, provided by Experimental Animal Center of Chinese Academy of Military Medical.
Peptide A (which was prepared with the same procedure as in Embodiment 1). It was to be dissolved in physiological saline when used.
SD rats, with male and female each in half, were randomly divided into five groups with 10 rats in each group, respectively were model group (employing physiological saline and Freund's complete adjuvant); control group (employing the same volume of physiological saline as the model group); peptide A high, medium and low dose groups (employing Freund's complete adjuvant and peptide A, wherein each group was given different doses of peptide A, respectively were 174 μg/kg·d, 87 μg/kg·d and 43.5 μg/kg·d, peptide A was dissolved in physiological saline to form peptide A solution with desired concentration). Peptide A solution in each dose was administered by subcutaneous injection, 0.1 ml of peptide A solution per 100 g body weight of rats. The control group employed the same amount of physiological saline as the peptide A solution (0.1 ml of physiological saline per 100 g body weight of rats).
Each group rats were administered according to the following manner. These rats were normally fed every day during the administration.
On the 1st day (including this day), except the control group, for rats of other groups (the model group and the peptide A high, medium and low dose groups), 0.5 ml of Freund's complete adjuvant was subcutaneously injected into plantar skin of right rear foot of every rat. Then, they were subcutaneously injected with 0.05 ml of Freund's complete adjuvant for one time every other day, a total of 15 times.
From the 2nd day (including this day), the rats of peptide A high, medium and low dose groups each were administered with corresponding the dose of peptide A. Then, they were subcutaneously injected with the dose the amount of peptide A for one time every other day, a total of 15 times. At the same time, the rats of the control group and the model group were subcutaneously injected the same amount of physiological saline as that of the peptide A for the high, medium and low dose groups for one time every other day, a total of 15 times.
Measurement for the experimental results was conducted as follows. Firstly, before administration to rats of each group, left rear ankle circumference […] of each rat was measured by a flexible rule as a base value, and then circumference of left rear ankle with inflammation of each rat was measured at the 4th, 8th, 12th, 16th, 20th, 24th, 28th, and 32nd day, respectively. Swelling value obtained by circumference after inflammation minus circumference before inflammation was used to observe changes of primary and secondary inflammation of Freund's complete adjuvant-induced rats.
Secondly, at the 32nd day, rats of each group were killed, and their left rear foot ankle joints ware quickly taken out, fixed in 10% formalin and then embedded in paraffin after decalcification, sectioned and stained with HE. The proliferation of synovial tissue, degeneration of covering epithelial cells (synovial cells), congestion of interstitial substance, inflammatory cell infiltration, damage or fibrosis of arthrodial cartilage, and inflammatory cell infiltration or fibrosis of subcutaneous tissue around the joint, were observed. According to severity of joint lesions, the lesions were scored as “1 score (few or mild lesion)”, “2 scores (moderate or medium lesion)”, “3 scores (large or severe lesion)”, and “4 scores (very severe lesion)”. Very mild lesion was scored as “0.5”, and no lesion tissue was scored as “0”. Accumulate all scores to obtain a total score for one group, and then calculate average score ( X±SD) for each animal in each group. The lower score indicates the milder grade of the lesion. […]

[1] = high dose 174 μg/kg·d s.c., the 4th day
[2] = high dose 174 μg/kg·d s.c., the 8th day
[3] = high dose 174 μg/kg·d s.c., the 12th day
[4] = high dose 174 μg/kg·d s.c., the 16th day
[5] = high dose 174 μg/kg·d s.c., the 20th day
[6] = high dose 174 μg/kg·d s.c., the 24th day
[7] = high dose 174 μg/kg·d s.c., the 28th day
[8] = high dose 174 μg/kg·d s.c., the 32nd day
[9] = low dose 43.5 μg/kg·d s.c., the 4th day
[10] = low dose 43.5 μg/kg·d s.c., the 8th day
[11] = low dose 43.5 μg/kg·d s.c., the 12th day
[12] = low dose 43.5 μg/kg·d s.c., the 16th day
[13] = low dose 43.5 μg/kg·d s.c., the 20th day
[14] = low dose 43.5 μg/kg·d s.c., the 24th day
[15] = low dose 43.5 μg/kg·d s.c., the 28th day
[16] = low dose 43.5 μg/kg·d s.c., the 32nd day
[17] = medium dose 87 μg/kg·d s.c., the 4th day
[18] = medium dose 87 μg/kg·d s.c., the 8th day
[19] = medium dose 87 μg/kg·d s.c., the 12th day
[20] = medium dose 87 μg/kg·d s.c., the 16th day
[21] = medium dose 87 μg/kg·d s.c., the 20th day
[22] = medium dose 87 μg/kg·d s.c., the 24th day
[23] = medium dose 87 μg/kg·d s.c., the 28th day
[24] = medium dose 87 μg/kg·d s.c., the 32nd day

## GQTYTSG [Peptide A]
All dose groups, effect in descending order high, medium, low
  arthritis lesion (histopathology) after administration: reduced in different degrees
[1]
  ankle joint swelling value: 8.5 ± 1.5 mm
  inhibition rate of ankle joint swelling: (17.5%)
[2]
  ankle joint swelling value: 10.2 ± 1.7 mm
  inhibition rate of ankle joint swelling: (28.2%)
[3]
  ankle joint swelling value: 10.8 ± 1.5 mm
  inhibition rate of ankle joint swelling: (31.6%)
[4]
  ankle joint swelling value: 11.1 ± 1.6 mm
  inhibition rate of ankle joint swelling: (39.7%)
[5]
  ankle joint swelling value: 11.4 ± 1.8 mm
  inhibition rate of ankle joint swelling: (37.4%)
[6]
  ankle joint swelling value: 10.8 ± 1.7 mm
  inhibition rate of ankle joint swelling: (38.3%)
[7]
  ankle joint swelling value: 10.4 ± 1.8 mm
  inhibition rate of ankle joint swelling: (37.7%)
[8]
  ankle joint swelling value: 9.5 ± 1.9 mm
  inhibition rate of ankle joint swelling: (39.9%)
High dose group (174 μg/kg·d s.c.)
  Lesion scoring ( X ± SD), joint lesion severity: 3.60 ± 1.26
High dose group (174 μg/kg·d)
  inhibition rate to the joint swelling: ~40%
high, medium and low dose groups, observation
  joint swelling compared with rats of the model group: significantly reduced joint swelling
high, medium and low dose groups, part of model rats had skin ulcers on the 24th day
  skin ulcer symptom: did not have skin ulcer symptom
[9]
  ankle joint swelling value: 9.3 ± 1.4 mm
  inhibition rate of ankle joint swelling: (9.7%)
[10]
  ankle joint swelling value: 13.5 ± 2.1 mm
  inhibition rate of ankle joint swelling: (4.9%)
[11]
  ankle joint swelling value: 13.9 ± 1.6 mm
  inhibition rate of ankle joint swelling: (12.0%)
[12]
  ankle joint swelling value: 14.2 ± 1.7 mm
  inhibition rate of ankle joint swelling: (22.8%)
[13]
  ankle joint swelling value: 14.6 ± 2.3 mm
  inhibition rate of ankle joint swelling: (19.8%)
[14]
  ankle joint swelling value: 14.2 ± 1.4 mm
  inhibition rate of ankle joint swelling: (18.8%)
[15]
  ankle joint swelling value: 14.0 ± 1.8 mm
  inhibition rate of ankle joint swelling: (16.2%)
[16]
  ankle joint swelling value: 13.8 ± 1.5 mm
  inhibition rate of ankle joint swelling: (12.6%)
Low dose group (43.5 μg/kg·d s.c.)
  Lesion scoring ( X ± SD), joint lesion severity: 4.10 ± 0.99
[17]
  ankle joint swelling value: 8.9 ± 1.6 mm
  inhibition rate of ankle joint swelling: (13.6%)
[18]
  ankle joint swelling value: 11.9 ± 1.8 mm
  inhibition rate of ankle joint swelling: (16.2%)
[19]
  ankle joint swelling value: 12.1 ± 2.3 mm
  inhibition rate of ankle joint swelling: (23.4%)
[20]
  ankle joint swelling value: 12.9 ± 1.8 mm
  inhibition rate of ankle joint swelling: (29.9%)
[21]
  ankle joint swelling value: 13.2 ± 1.4 mm
  inhibition rate of ankle joint swelling: (27.5%)
[22]
  ankle joint swelling value: 13.0 ± 1.8 mm
  inhibition rate of ankle joint swelling: (25.7%)
[23]
  ankle joint swelling value: 12.8 ± 1.6 mm
  inhibition rate of ankle joint swelling: (23.4%)
[24]
  ankle joint swelling value: 12.5 ± 1.8 mm
  inhibition rate of ankle joint swelling: (20.9%)
Medium dose group (87 μg/kg·d s.c.)
  Lesion scoring ( X ± SD), joint lesion severity: 4.00 ± 0.67
